Measurements as given in publication PMC7870638, “Toxicity of anticancer drugs in human placental tissue explants and trophoblast cell lines” (Archives of Toxicology, 2020).
Where two headings read alike, the source gives them in different places.

Columns and labels:
[1] = ref Gaver et al. [1988]; cited from earlier work
[2] = system: progesterone release in syncytialised BeWo cells; experiment: Steroidogenesis (progesterone release) in syncytialised BeWo cells; assay type: cell-based, human; conditions: 48 h; for progesterone release (in words): crizotinib 1 μM, paclitaxel 3 nM, cisplatin 100 μM, carboplatin 100 μM
Experimental: (§1) Two human choriocarcinoma-derived placental cell lines were used: JEG3 and BeWo (ATCC catalog numbers HTB-36 and CCL-98, respectively). JEG3 cells were cultured in DMEM and Bewo cells in Ham’s F-12 K medium, supplemented with 10% fetal calf serum and 1% penicillin and streptomycin under a humidified 5% CO2/95% air atmosphere at 37 °C. Cells were passaged (JEG3: 1:10 twice a week; BeWo: 1:3 once a week) after trypsinization with 0.05% Trypsin–EDTA when cells reached approximately 80% confluency. For BeWo cells, the medium was renewed 3 times a week. To create syncytialised BeWo cells, regular BeWo cells were treated with 50 μM forskolin (Sigma-Aldrich, St. Louis, MO, USA) in 0.1% DMSO, to initiate syncytialisation. As forskolin increases the intracellular cAMP levels, it activates protein kinase A after which syncytialisation and fusion of trophoblasts occurs (Orendi et al. [2010]).
For doxorubicin, only two concentrations were tested. Conditioned medium, containing the secreted hormones, was collected after 48 h exposure to the TKIs and cytostatic drugs and stored at − 80 °C until analysis. To eliminate the influence of the varying cell densities between the wells, total protein content in each well was measured. Cells were washed twice with Hank’s buffered Salt Solution (HBSS) and lysed with 50 μL 1 M sodium hydroxide (NaOH). Subsequently, 10 μL of the lysate was mixed with 190 μL of 5 times diluted dye reagent (Biorad protein assay). The absorbance was measured at 595 nm using a Biorad Multiwell Plate reader. The quantities of protein in the samples were determined via a calibration curve of bovine serum albumin.
(§2) Progesterone and estrone concentrations in culture medium were determined by LC–MS/MS analysis using an Acquity UPLC (Waters, Milford, MA, USA) equipped with a C18 UPLC column (Acquity UPLC BEH C18, 2.1 × 50 mm, Milford, MA, USA, Waters) coupled to a Xevo TQ-S (Waters) triple quadrupole mass spectrometer. Progesterone-D9 was used as internal standard and calibration curves were made in the matrix. To precipitate proteins, methanol containing the internal standard was added to culture medium samples in a ratio 3:1 (MeOH:medium). Following subsequent centrifugation (13,000g for 3 min), 1 μl of the clear supernatant was injected into the LC–MS to quantify progesterone and estrone. Solvent A consisted of 0.2 mM NH4F in water and solvent B consisted of 0.2 mM NH4F in Acetonitrile:Methanol in a ratio of 75:25%. Separation was performed at a flow rate of 350 µl/min under the following gradient conditions: 0 min 60% eluent A, 3.0 min 0% eluent A, 4 min 0% eluent A, 5 min 60% eluent A. The effluent from the UPLC was passed directly into the electrospray ion source. Positive electrospray ionization was achieved using nitrogen as a desolation gas with ionization voltage at 600 V. The source temperature was set at 500 °C and argon was used as collision gas. The following SRM transitions were used: m/z 315.10 (parent ion) to m/z 69.9 and m/z 108.9 (both product ions) for progesterone, m/z 269.0 (parent ion) to m/z 144.9 and 158.9 (product ions) for estrone, and m/z 324.2 (parent ion) to m/z 99.9 and m/z 112.9 (product ions) for the internal standard d9-progesterone. We also attempted to quantify estradiol and estriol levels in the culture medium of both explants and cells, but these were below the detection limit.

[3] = system: progesterone and estrone release in placental explants; experiment: Steroid (progesterone, estrone) release in placental explants, LC-MS/MS of culture medium; assay type: cell-based, human; conditions: placental explants; for progesterone release relative to control (in words): 100 µM, 72 h exposure; for reduction in progesterone release (in words): 10 and 100 µM gefitinib, 100 μM imatinib, effects over time (Fig. S2A)
Experimental: (§3) Term placentas, obtained from consenting women following uncomplicated pregnancies and delivered vaginally or by caesarean section, were used for all experiments. Approval of the Regional Committee on Research involving Human Subjects was obtained (File 2014-1397). Within 60 min after delivery, 1 cm^3 villous tissue samples were excised at random areas midway between the umbilical cord and distal edge of the placenta. To remove maternal blood, samples were carefully rinsed in sterile Dulbecco’s phosphate-buffered saline supplemented with calcium chloride and magnesium chloride (Sigma-Aldrich, St. Louis, MO, USA) which was kept at 37 °C. The villous tissue was cut into small pieces weighing approximately 5 mg, after which 4–6 pieces of tissue were cultured together in individual wells of a 6-well plate. The explants were cultured in 1.5 ml of RPMI-1640 culture medium (Gibco, USA) with 15% heat-inactivated fetal bovine serum, 1% penicillin streptomycin, 1% gentamicin, and 1% amphotericin B (Life Technologies, USA). Placental explant cultures were kept for 7 days at 37 °C in a humidified gas mixture of 5% CO2 and 95% air. The culture medium was renewed every 24 h.
Treatment with TKIs or cytostatic drugs was started at day four of culture to allow for the syncytiotrophoblasts to regenerate (Siman et al. [2001]). Explants were then incubated for 72 h with 1, 10 or 100 µM of all TKIs or cytostatic drugs mentioned above. […] For cisplatin and carboplatin, culture medium was used as a solvent. Culture medium was replaced every 24 h with new medium containing the original concentration of the drug. Supernatant was collected each day and stored at − 20 °C for hormone quantification.
as §2
Construction of graphs and data analysis were performed using Graphpad Prism version 8.4.2. MTT conversion and progesterone and estrone release in placental explants were normalized to tissue wet weight. To compare the effects on tissue viability and cell viability, the data were normalized to control conditions and mean differences were tested using an unpaired t test, a one-way ANOVA, or a two-way repeated measures ANOVA. […]

[4] = system: placental villous explants; experiment: MTT assay in placental explants (tissue viability); assay type: cell-based, human; conditions: 72 h exposure, 1, 10 or 100 µM
Experimental: as §3
(§4) Treatment with TKIs or cytostatic drugs was started at day four of culture to allow for the syncytiotrophoblasts to regenerate (Siman et al. [2001]). Explants were then incubated for 72 h with 1, 10 or 100 µM of all TKIs or cytostatic drugs mentioned above. […] Culture medium was replaced every 24 h with new medium containing the original concentration of the drug. Supernatant was collected each day and stored at − 20 °C for hormone quantification.
(§5) To evaluate tissue and cell viability, after 72 h of drug exposure, tissue explants were incubated for 4 h at 37 °C with 1 mM 3-(4,5-dimethylthiazol-2-yl)-[…] (MTT) in RPMI. After incubation, the medium was removed, the tissue in each well was weighed, and the explants were subsequently placed in 500 µL DMSO for 10 min to dissolve the formazan formed. After 10 min, the DMSO was transferred to a 96-well plate and absorbance was measured at 540 nm using a Biorad Multiwell Plate reader.
(§6) Construction of graphs and data analysis were performed using Graphpad Prism version 8.4.2. MTT conversion and progesterone and estrone release in placental explants were normalized to tissue wet weight. To compare the effects on tissue viability and cell viability, the data were normalized to control conditions and mean differences were tested using an unpaired t test, a one-way ANOVA, or a two-way repeated measures ANOVA. The change in progesterone release rate as compared to the baseline (at 0 h) was calculated for each well separately, after which data were normalized to control conditions. One-way ANOVA was used to assess effects at the 72 h time point only. The Bonferroni post hoc test was applied to compare treatment conditions with controls. Data are described as mean ± SD in Figs. 2 and 3 and as mean ± SEM in all other figures where comparisons of means between groups were made. The mean and SD or SEM were calculated from all individual results (three experiments performed in duplicate or triplicate wells, n = 6 or n = 9).

[5] = system: JEG-3, BeWo, and syncytialised BeWo cells; experiment: MTT assay, cell viability in all three trophoblast cell types; assay type: cell-based, human; conditions: JEG-3 or BeWo cells, 50 μM, 48 h incubation
Experimental: as §1
The cells were seeded in 96-well culture plates at a cell density of 1 × 10^4 cells/well and cultured for 24 h at 37 °C in a humidified atmosphere with 5% CO2 to allow for attachment. Subsequently, the cells were exposed to the TKIs and cytostatic drugs in concentrations ranging from 100 pM to 100 µM (triplicate). […] This is a minimum percentage DMSO, but required as cells required co-incubation with forskolin to syncytialise. Crizotinib 100 μM was used as positive control. After attachment, cells were incubated with the compounds for 48 h, after which the medium was removed and the cells were exposed to […] diluted in medium. After 3 h of incubation with MTT, the formazan crystals formed were solubilized in 50 μL DMSO. The absorbance of formazan was measured at 540 nm by a Biorad Multiwell Plate reader.

[6] = system: progesterone release in BeWo cells; experiment: Progesterone release in BeWo cells in control conditions (forskolin-induced syncytialisation); assay type: cell-based; conditions: Homo sapiens, 48 h, read-out: progesterone production, % of control
Experimental: Two human choriocarcinoma-derived placental cell lines were used: JEG3 and BeWo (ATCC catalog numbers HTB-36 and CCL-98, respectively). JEG3 cells were cultured in DMEM and Bewo cells in Ham’s F-12 K medium, supplemented with 10% fetal calf serum and 1% penicillin and streptomycin under a humidified 5% CO2/95% air atmosphere at 37 °C. Cells were passaged (JEG3: 1:10 twice a week; BeWo: 1:3 once a week) after trypsinization with 0.05% Trypsin–EDTA when cells reached approximately 80% confluency. For BeWo cells, the medium was renewed 3 times a week. […]
For doxorubicin, only two concentrations were tested. […] To eliminate the influence of the varying cell densities between the wells, total protein content in each well was measured. […] The absorbance was measured at 595 nm using a Biorad Multiwell Plate reader. The quantities of protein in the samples were determined via a calibration curve of bovine serum albumin.
Progesterone and estrone concentrations in culture medium were determined by LC–MS/MS analysis using an Acquity UPLC (Waters, Milford, MA, USA) equipped with a C18 UPLC column (Acquity UPLC BEH C18, 2.1 × 50 mm, Milford, MA, USA, Waters) coupled to a Xevo TQ-S (Waters) triple quadrupole mass spectrometer. […] Following subsequent centrifugation (13,000g for 3 min), 1 μl of the clear supernatant was injected into the LC–MS to quantify progesterone and estrone. […]

[7] = MTT assay in placental explants (tissue viability); assay type: cell-based, human; conditions: female, human, term placental villous tissue explants, 100 µM, 72 h exposure, mean ± SEM, read-out: tissue viability, % of control
Experimental: as §3, §4, §5, §6

syncytialised BeWo cells = assay type: cell-based, human
Experimental: The cells were seeded in 96-well culture plates at a cell density of 1 × 10^4 cells/well and cultured for 24 h at 37 °C in a humidified atmosphere with 5% CO2 to allow for attachment. Subsequently, the cells were exposed to the TKIs and cytostatic drugs in concentrations ranging from 100 pM to 100 µM (triplicate). […] This is a minimum percentage DMSO, but required as cells required co-incubation with forskolin to syncytialise. Crizotinib 100 μM was used as positive control. […] The absorbance of formazan was measured at 540 nm by a Biorad Multiwell Plate reader.

[8] = 50 µM, 24 h, 48 h and 72 h exposure starting at day 4

Compound: N.N.O=C([O-])C1(C(=O)[O-])CCC1.[Pt+2] [carboplatin]
- plasma concentration (may be as high as) [1]: ≤ 100 µM
- progesterone release (in words) ([2]; not statistically significant): slight induction of progesterone release

Compound: N.N.[Cl][Pt][Cl] [cisplatin]
- progesterone release (in words) ([2]; not statistically significant): slight induction of progesterone release

Compound: C[C@@H](Oc1cc(-c2cnn(C3CCNCC3)c2)cnc1N)c1c(Cl)ccc(F)c1Cl [crizotinib, Crizotinib]
- progesterone release (in words) ([2]; not statistically significant): slight induction of progesterone release
- progesterone release relative to control (in words) [3]: statistically significant reduction in progesterone release
- effect on tissue viability (in words) [4]: fully inhibited tissue viability

Compound: C=C[C@@]1(C)CC(=O)[C@]2(O)[C@@]3(C)[C@@H](O)CCC(C)(C)[C@@H]3[C@H](O)[C@H](OC(C)=O)[C@@]2(C)O1 [forskolin]
- effect on cell viability (in words) [5]: did not alter cell viability
- activity at 50 µM ([6]; Forskolin 50 μM in 0.1% DMSO): 370 ± 50%
- activity at 50 µM ([6]; Forskolin 50 μM in 0.5% DMSO): 215 ± 12%
- estrone release (in words) [3, 8]: significant induction in estrone release
- progesterone release (in words) [3, 8]: not progesterone release

Compound: COc1cc2ncnc(Nc3ccc(F)c(Cl)c3)c2cc1OCCCN1CCOCC1 [gefitinib]
- reduction in progesterone release (in words) [3]: only statistically significant if effects over time were analyzed
- viability at 72 h, 100 µM [7]: 24 ± 4%

Compound: Cc1ccc(NC(=O)c2ccc(CN3CCN(C)CC3)cc2)cc1Nc1nccc(-c2cccnc2)n1 [imatinib, Imatinib]
- activity at 10 µM ([2]; Homo sapiens, 10 µM, not statistically significant, read-out: progesterone release, % of control): 76 ± 9%
- reduction in progesterone release (in words) [3]: only statistically significant if effects over time were analyzed

Compound: CCN(CC)CCNC(=O)c1c(C)[nH]c(/C=C2\C(=O)Nc3ccc(F)cc32)c1C [sunitinib, sunitinib malate]
- cytotoxicity in syncytialised BeWo cells compared to undifferentiated BeWo and JEG3 cells (in words) (syncytialised BeWo cells): inhibited cell viability at multiple concentrations to a lesser extent in syncytialised BeWo cells
- activity at 1 µM ([2]; Homo sapiens, 1 µM, P < 0.05, read-out: progesterone release, % of control): 76 ± 6%
- activity at 3 µM ([2]; Homo sapiens, 3 µM, P < 0.001, read-out: progesterone release, % of control): 50 ± 4%
- progesterone release relative to control (in words) [3]: statistically significant reduction in progesterone release
- effect on tissue viability (in words) [4]: fully inhibited tissue viability
